From patent US20250382332A1, “NOVEL ALPHA-FACTOR BASED PEPTIDES WITH ANTIFUNGAL ACTIVITY” (INVAIO SCIENCES, INC., priority 2024, published 2025)
Peptide text beside a SMILES is read from it.

System: Botrytis cinerea (B05.10)
Assay: Resazurin antifungal assay of 180 alpha-factor peptide variants towards Botrytis (Example 2)
Type: cell-based
Conditions: % inhibition of fungal growth, Botrytis conidia, resazurin; for Inhibition at 50 μM: peptide 50 μM; for Inhibition at 100 μM: peptide 100 μM
Procedure, shortened: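 B. cinerea B05.10 conidia (5000/well) were exposed to peptides at 100, 50, 20, 15 and 10 μM final for 24 h at 20° C. Resazurin was then added and fluorescence read at 570/620 nm. Percent growth inhibition was calculated against conidia-only wells, with four technical replicates.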

Structure (SMILES) | Inhibition at 50 μM [%] | Inhibition at 100 μM [%]
CSCC[C@H](NC(=O)[C@@H]1CCCN1C(=O)[C@H](CCC(N)=O)NC(=O)CNC(=O)[C@@H]1CCCN1C(=O)[C@H](CCCCN)NC(=O)[C@H](CC(C)C)NC(=O)[C@H](CC(N)=O)NC(=O)[C@H](CC(C)C)NC(=O)[C@H](CC(C)C)NC(=O)[C@H](Cc1c[nH]cn1)NC(=O)[C@@H](N)CCCCN)C(=O)N[C@@H](Cc1ccc(O)cc1)C(=O)O [compound 113] (H-KHLLNLKPGQPMY-OH; N-terminus and C-terminus assumed) | <90 | 98.44
CC[C@H](C)[C@H](NC(=O)[C@H](Cc1c[nH]c2ccccc12)NC(=O)[C@H](Cc1c[nH]cn1)NC(=O)[C@@H](N)Cc1c[nH]c2ccccc12)C(=O)N[C@@H](CC(N)=O)C(=O)N[C@@H](CC(C)C)C(=O)N[C@@H](Cc1c[nH]c2ccccc12)C(=O)N1CCC[C@H]1C(=O)NCC(=O)N[C@@H](CCC(N)=O)C(=O)N1CCC[C@H]1C(=O)N[C@@H](CCSC)C(=O)N[C@@H](Cc1ccc(O)cc1)C(=O)O [compound 114] (H-WHWINLWPGQPMY-OH; N-terminus and C-terminus assumed) | <90 | 100
CSCC[C@H](NC(=O)[C@@H]1CCCN1C(=O)[C@H](CCC(N)=O)NC(=O)CNC(=O)[C@H](CC(C)C)NC(=O)[C@H](CCCCN)NC(=O)[C@H](CC(C)C)NC(=O)[C@H](CCC(N)=O)NC(=O)[C@H](CC(C)C)NC(=O)[C@@H](NC(=O)[C@H](CCCCN)NC(=O)[C@@H](N)CCCCN)C(C)C)C(=O)N[C@@H](Cc1ccc(O)cc1)C(=O)O [compound 115] (H-KKVLQLKLGQPMY-OH; N-terminus and C-terminus assumed) | <90 | 99.72
CSCC[C@H](NC(=O)[C@@H]1CCCN1C(=O)[C@H](CCC(N)=O)NC(=O)CNC(=O)[C@@H]1CCCN1C(=O)[C@H](CCCCN)NC(=O)[C@H](Cc1ccccc1)NC(=O)[C@H](CCCCN)NC(=O)[C@H](CC(C)C)NC(=O)[C@H](CC(=O)O)NC(=O)[C@H](Cc1c[nH]cn1)NC(=O)[C@@H](N)CCCCN)C(=O)N[C@@H](Cc1ccc(O)cc1)C(=O)O [compound 116] (H-KHDLKFKPGQPMY-OH; N-terminus and C-terminus assumed) | <90 | 93.51
CSCC[C@H](NC(=O)[C@@H]1CCCN1C(=O)[C@H](CCC(N)=O)NC(=O)CNC(=O)[C@@H]1CCCN1C(=O)[C@H](CCCCN)NC(=O)[C@H](CC(C)C)NC(=O)[C@H](CCC(N)=O)NC(=O)CNC(=O)[C@H](CO)NC(=O)[C@H](CCC(N)=O)NC(=O)[C@@H](N)Cc1c[nH]c2ccccc12)C(=O)N[C@@H](Cc1ccc(O)cc1)C(=O)O [compound 117] (H-WQSGQLKPGQPMY-OH; N-terminus and C-terminus assumed) | <90 | <90
CSCC[C@H](NC(=O)[C@H](Cc1c[nH]cn1)NC(=O)[C@@H](N)Cc1c[nH]c2ccccc12)C(=O)N[C@@H](CC(C)C)C(=O)N[C@@H](CC(N)=O)C(=O)N[C@@H](Cc1ccccc1)C(=O)N[C@@H](CCCCN)C(=O)N1CCC[C@H]1C(=O)NCC(=O)N[C@@H](CCC(N)=O)C(=O)N1CCC[C@H]1C(=O)N[C@@H](CCSC)C(=O)N[C@@H](Cc1ccc(O)cc1)C(=O)O [compound 118] (H-WHMLNFKPGQPMY-OH; N-terminus and C-terminus assumed) | <90 | <90
CSCC[C@H](NC(=O)[C@@H]1CCCN1C(=O)[C@H](CCC(=O)O)NC(=O)CNC(=O)[C@@H](NC(=O)CNC(=O)[C@H](CC(C)C)NC(=O)[C@H](CCCCN)NC(=O)[C@H](CC(C)C)NC(=O)[C@H](Cc1c[nH]c2ccccc12)NC(=O)[C@H](Cc1c[nH]cn1)NC(=O)[C@@H](N)Cc1c[nH]c2ccccc12)[C@@H](C)O)C(=O)N[C@@H](Cc1ccc(O)cc1)C(=O)O [compound 119] (H-WHWLKLGTGEPMY-OH; N-terminus and C-terminus assumed) | <90 | 98.65
CC[C@H](C)[C@H](NC(=O)[C@H](CCC(N)=O)NC(=O)CNC(=O)[C@H](CCSC)NC(=O)[C@H](CO)NC(=O)[C@@H](N)Cc1c[nH]c2ccccc12)C(=O)N[C@@H](CCCCN)C(=O)N1CCC[C@H]1C(=O)NCC(=O)N[C@@H](CO)C(=O)N1CCC[C@H]1C(=O)N[C@@H](CCSC)C(=O)N[C@@H](Cc1ccc(O)cc1)C(=O)O [compound 120] (H-WSMGQIKPGSPMY-OH; N-terminus and C-terminus assumed) | <90 | <90
CC[C@H](C)[C@H](NC(=O)[C@H](CCC(N)=O)NC(=O)[C@H](CC(C)C)NC(=O)CNC(=O)[C@H](CO)NC(=O)[C@@H]1CCCN1)C(=O)N[C@@H](CCCCN)C(=O)N[C@H](C(=O)NCC(=O)N[C@@H](CCC(N)=O)C(=O)N1CCC[C@H]1C(=O)N[C@@H](CCSC)C(=O)N[C@@H](Cc1ccc(O)cc1)C(=O)O)C(C)C [compound 121] (H-PSGLQIKVGQPMY-OH; N-terminus and C-terminus assumed) | <90 | <90
CSCC[C@H](NC(=O)[C@H](CO)NC(=O)[C@H](CO)NC(=O)CNC(=O)[C@@H]1CCCN1C(=O)[C@H](CCCCN)NC(=O)[C@H](CC(C)C)NC(=O)[C@H](CO)NC(=O)[C@H](CC(C)C)NC(=O)[C@H](Cc1c[nH]c2ccccc12)NC(=O)[C@H](CCC(=O)O)NC(=O)[C@@H]1CCCN1)C(=O)N[C@@H](Cc1ccc(O)cc1)C(=O)O [compound 122] (H-PEWLSLKPGSSMY-OH; N-terminus and C-terminus assumed) | <90 | <90
CSCC[C@H](NC(=O)CNC(=O)[C@H](CCC(N)=O)NC(=O)CNC(=O)[C@H](Cc1ccc(O)cc1)NC(=O)[C@H](CCCCN)NC(=O)[C@H](CC(C)C)NC(=O)[C@H](CCC(N)=O)NC(=O)[C@@H](NC(=O)[C@H](Cc1c[nH]c2ccccc12)NC(=O)[C@H](CCC(N)=O)NC(=O)[C@@H](N)CCCCN)C(C)C)C(=O)N[C@@H](Cc1ccc(O)cc1)C(=O)O [compound 123] (H-KQWVQLKYGQGMY-OH; N-terminus and C-terminus assumed) | <90 | 100
CC[C@H](C)[C@H](NC(=O)CNC(=O)[C@H](Cc1c[nH]cn1)NC(=O)[C@@H](N)Cc1c[nH]c2ccccc12)C(=O)N[C@@H](CCC(N)=O)C(=O)N[C@@H](CC(C)C)C(=O)N[C@@H](Cc1ccccc1)C(=O)N[C@@H](CCCCN)C(=O)NCC(=O)N[C@@H](CCC(N)=O)C(=O)N1CCC[C@H]1C(=O)N[C@@H](CCSC)C(=O)N[C@@H](Cc1ccc(O)cc1)C(=O)O [compound 124] (H-WHGIQLFKGQPMY-OH; N-terminus and C-terminus assumed) | <90 | 100
CSCC[C@H](NC(=O)[C@@H]1CCCN1C(=O)[C@H](CCC(N)=O)NC(=O)CNC(=O)[C@@H]1CCCN1C(=O)[C@H](Cc1ccc(O)cc1)NC(=O)[C@H](CC(C)C)NC(=O)[C@H](CCC(N)=O)NC(=O)[C@@H](NC(=O)[C@H](Cc1c[nH]c2ccccc12)NC(=O)[C@H](CCC(=O)O)NC(=O)[C@@H](N)CCCCN)C(C)C)C(=O)N[C@@H](Cc1ccc(O)cc1)C(=O)O [compound 125] (H-KEWVQLYPGQPMY-OH; N-terminus and C-terminus assumed) | <90 | <90
